The values that follow come from US8536167B2, “Methods for treating ophthalmic, otic, or nasal infections” (Alcon Research, Ltd., priority 2009, dated 2013).

≈ marks a conversion by molar mass, not a printed value. Like-named read-outs stand apart in the source and are kept apart here.

Data set [1] in a line: Ocular pharmacokinetic study following topical administration. The format is in vivo, New Zealand white rabbits. The procedure: FIGS. 3 and 4 present the results of ocular pharmacokinetic studies following topical administration of finafloxacin and ciprofloxacin compositions. The studies utilized New Zealand white rabbits, and 45 μl of 0.3% test composition was instilled bilaterally.

The subject of data set [2] is Pseudomonas otitidis. Briefly: In vitro antimicrobial susceptibility test (MIC50). The class given is cell-based. The note with it: Metapseudomonas otitidis, N = 10. The procedure:
(§1) A finafloxacin composition at pH 5.8 was compared to ciprofloxacin (pH 5.8) and ofloxacin (pH 5.8 and pH 7) compositions using standard in vitro antimicrobial susceptibility tests (M07-08 Methods for Dilution Antimicrobial Susceptibility Tests for Bacteria that Grow Aerobically; Approved Standard-Eighth Edition (January 2009, Clinical and Laboratory Standards Institute), herein incorporated by reference). Minimum inhibitory concentrations (MIC50) were determined using Gram-positive and Gram-negative test organisms commonly found in otic and ophthalmic infections. The MIC50 was the lowest concentration of antibiotic that prevented growth of the test organism, as determined visually by a lack of turbidity.
(§2) The results of the experiment are presented below in TABLE 1 (Gram-positive organisms) and TABLE 2 (Gram-negative organisms).

The subject of data set [3] is Proteus mirabilis. Briefly: In vitro antimicrobial susceptibility test (MIC50). The format is cell-based. How it is done:
as §1, §2

For data set [4], the system named is Staphylococcus epidermidis - Ciprofloxacin sensitive. Briefly: In vitro antimicrobial susceptibility test (MIC50). The class given is cell-based. The procedure:
as §1, §2

Data set [5] deals with Escherichia coli. Briefly: In vitro antimicrobial susceptibility test (MIC50). The format is cell-based. How it is done: as §1, §2
Data set [6] relates to Streptococcus pneumonia. Briefly: In vitro antimicrobial susceptibility test (MIC50). The format is cell-based. The following applies: Streptococcus pneumoniae, N = 10. The procedure: as §1, §2
The subject of data set [7] is Pseudomonas aeruginosa - Ciprofloxacin resistant. Briefly: In vitro antimicrobial susceptibility test (MIC50). The class given is cell-based. How it is done:
as §1, §2

The subject of data set [8] is Staphylococcus epidermidis - Ciprofloxacin resistant. Briefly: In vitro antimicrobial susceptibility test (MIC50). The class given is cell-based. The procedure: as §1, §2
Data set [9] relates to Enterococcus faecalis. Briefly: In vitro antimicrobial susceptibility test (MIC50). The class given is cell-based. How it is done: as §1, §2
Data set [10] deals with Pseudomonas aeruginosa - Ciprofloxacin sensitive. Briefly: In vitro antimicrobial susceptibility test (MIC50). The class given is cell-based. The procedure:
as §1, §2

Data set [11] deals with Staphylococcus aureus - Ciprofloxacin sensitive. Briefly: In vitro antimicrobial susceptibility test (MIC50). The class given is cell-based. How it is done: as §1, §2
The subject of data set [12] is Haemophilia influenzae. Briefly: In vitro antimicrobial susceptibility test (MIC50). The class given is cell-based. The following applies: N = 10. How it is done:
as §1, §2

Data set [13] has as its system Staphylococcus aureus - Ciprofloxacin resistant. Briefly: In vitro antimicrobial susceptibility test (MIC50). The format is cell-based. The procedure:
as §1, §2

A short description of data set [14]: In vivo ototoxicity study, outer ear irritation. More on the design: species or system Rabbit. The following applies: 0.3% pH 5.7, 0.3%, 0.6%, 1.0% pH 7.5 (0.3% Mg and BAC), 0.2 mL bid for 7 days followed by 7 day observations. The text has this: TABLE 3 below presents the results of toxicity testing performed in two animals models (chinchilla and rabbit).

A short description of data set [15]: Ex vivo corneal perfusion model. The following applies: 0.1 mM test solutions at pH 7.3, ex vivo, FIG. 2. The class given is in vitro ADME. The procedure:
FIG. 2 presents comparative corneal perfusion data for several quinolone antimicrobials (including finafloxacin) using an ex vivo model. 0.1 mM test solutions at pH 7.3 of four quinolone antimicrobials were compared in the model.

Data set [16] has as its system Pseudomonas aeruginosa. Briefly: Rabbit keratitis model (similar test). The class given is in vivo, New Zealand white rabbits. The following applies: finafloxacin compositions compared to CILOXAN.
Data set [17] relates to Pseudomonas aeruginosa. Briefly: Guinea pig model of acute otitis externa (AOE). The format is in vivo. The note with it: for eradication of Pseudomonas: 0.3% composition. The procedure: Guinea pig ears were slightly abraded and 200 μl of bacterial culture (10^8 CFU) of P. aeruginosa were instilled into each ear. Ears were lavaged with saline and plated onto Pseudomonas isolation media. FIGS. 1a-1d summarize the results of these studies. […] Lower concentration finafloxacin compositions (0.03% and 0.003%) still achieved very substantial 5-6 log reductions of Pseudomonas in the model. […] Using a lower concentration composition (0.03%, shown in FIG. 1c) finafloxacin achieved a 4 log CFU reduction in the single dose study.

[18] abbreviates: at pH 5.8, N = 10, read-out: MIC50.

Regarding `O=C(O)c1cn(C2CC2)c2cc(N3CCNCC3)c(F)cc2c1=O` [Ciprofloxacin], the “corneal stroma tissue concentration” value in data set [1] (45 μl of 0.3% test composition instilled bilaterally, topical, FIG. 3) is reported as “greater concentrations immediately following instillation”. In data set [1] (45 μl of 0.3% test composition instilled bilaterally, topical, FIG. 4), the “aqueous humor tissue concentration” value was “greater concentrations immediately following instillation”. The MIC50 is 0.25 µg/mL (≈ 0.754 µM) in data set [2] (at pH 5.8); 0.125 µg/mL (≈ 0.377 µM) in data set [3] (setting [18]); 0.5 µg/mL (≈ 1.51 µM) in data set [4] (at pH 5.8, N = 8); 256 µg/mL (≈ 773 µM) in data set [5] (at pH 5.8, N = 10); 1 µg/mL (≈ 3.02 µM) in data set [6] (at pH 5.8); 64 µg/mL (≈ 193 µM) in [7] (at pH 5.8, N = 11). The MIC50 in data set [8] (at pH 5.8, N = 12) stood at 128 µg/mL (≈ 386 µM); in data set [9] (at pH 5.8, N = 10), 128 µg/mL (≈ 386 µM); in data set [10] (at pH 5.8, N = 14) it was 1 µg/mL (≈ 3.02 µM); in data set [11] (at pH 5.8, N = 8), 1 µg/mL (≈ 3.02 µM); in data set [12] (at pH 5.8), 0.016 µg/mL (≈ 0.0483 µM); in [13] (at pH 5.8, N = 12) it was 128 µg/mL (≈ 386 µM).
Consider `N#Cc1c(N2C[C@@H]3NCCO[C@H]3C2)c(F)cc2c(=O)c(C(=O)O)cn(C3CC3)c12` [Finafloxacin, 8-cyano-1-cyclopropyl-6-fluoro-7-[(4aS,7aS)-hexahydropyrrolo[3,4-b]-1,4-oxazin-6(2H)-yl]-1,4-dihydro-4-oxo-3-quinolinecarboxylic acid], for which the outer ear irritation result in data set [14] is “No indications”; in [14] (listed as finafloxacin) it was “did not demonstrate inner or outer ear irritation”. The “aqueous humor tissue concentration” value in data set [1] (rabbit, in vivo) is “comparable at later time points”. Further, the “corneal stroma tissue concentration” value in data set [1] (rabbit, in vivo) was “comparable at later time points”. Moreover, the corneal perfusion result in data set [15] is “better corneal perfusion properties than the ciprofloxacin test composition and demonstrates less perfusion relative to the ofloxacin test composition”. Moreover, the MIC50 stood at 0.125 µg/mL (≈ 0.314 µM) in data set [2] (at pH 5.8); 0.25 µg/mL (≈ 0.628 µM) in data set [3] (setting [18]); 0.016 µg/mL (≈ 0.0402 µM) in data set [4] (at pH 5.8, N = 8); 4 µg/mL (≈ 10 µM) in data set [5] (at pH 5.8, N = 10); 0.25 µg/mL (≈ 0.628 µM) in data set [6] (at pH 5.8); 16 µg/mL (≈ 40.2 µM) in data set [7] (at pH 5.8, N = 11). Also, the MIC50 in data set [8] (at pH 5.8, N = 12) is 2 µg/mL (≈ 5.02 µM); in [9] (at pH 5.8, N = 10), 8 µg/mL (≈ 20.1 µM); in [10] (at pH 5.8, N = 14), 1 µg/mL (≈ 2.51 µM); in data set [11] (at pH 5.8, N = 8), 0.016 µg/mL (≈ 0.0402 µM); in data set [12] (at pH 5.8), 0.008 µg/mL (≈ 0.0201 µM); in [13] (at pH 5.8, N = 12) it was 4 µg/mL (≈ 10 µM). Besides, the “Pseudomonas CFU reductions” value in [16] is listed as “inferior Pseudomonas CFU reductions compared to CILOXAN®”. For the same molecule, the “log reductions of Pseudomonas” value was 5-6 log in data set [17] (0.003% composition, two doses, FIG. 1a) and 5-6 log in data set [17] (0.03% composition, two doses, FIG. 1a). In data set [17] (0.03% and 0.3% compositions with BAC compared to self-preserved compositions, FIG. 1d), the “effect of preservative (BAC) on efficacy against Pseudomonas” value is on record as “does not affect the efficacy”. In addition, the CFU reduction in data set [17] (0.03% composition, single dose study, FIG. 1c) came out at 4 log CFU. Moreover, in data set [17] (0.03%, single dose study, FIG. 1c), the “performance compared to ciprofloxacin and ofloxacin compositions” value is “performed as well as the ciprofloxacin composition and better than the ofloxacin composition”. Further, the “eradication of Pseudomonas” value in data set [17] (single dose study, FIG. 1b) was “almost complete eradication of Pseudomonas”; in data set [17] (two separate doses, FIG. 1a), “almost complete eradication of Pseudomonas”. The “performance compared to ciprofloxacin” value in data set [17] (tests summarized in FIG. 1a, two doses) is on record as “performed as well as ciprofloxacin”.
Take `CC1COc2c(N3CCN(C)CC3)c(F)cc3c(=O)c(C(=O)O)cn1c23` (stereo not shown) [Ofloxacin]: the MIC50 in data set [2] (at pH 5.8) amounted to 1 µg/mL (≈ 2.77 µM); in data set [2] (at pH 7), 0.25 µg/mL (≈ 0.692 µM); in [3] (setting [18]), 0.5 µg/mL (≈ 1.38 µM); in data set [3] (pH 7) it was 0.125 µg/mL (≈ 0.346 µM); in data set [4] (at pH 5.8, N = 8), 1 µg/mL (≈ 2.77 µM); in [4] (at pH 7, N = 8), 0.25 µg/mL (≈ 0.692 µM). The MIC50 worked out at 512 µg/mL (≈ 1420 µM) in [5] (at pH 5.8, N = 10); 16 µg/mL (≈ 44.3 µM) in data set [5] (at pH 7, N = 10); 2 µg/mL (≈ 5.53 µM) in data set [6] (at pH 5.8); 1 µg/mL (≈ 2.77 µM) in data set [6] (at pH 7); 256 µg/mL (≈ 708 µM) in data set [7] (at pH 5.8, N = 11); 64 µg/mL (≈ 177 µM) in data set [7] (at pH 7, N = 11). Moreover, the MIC50 in data set [8] (at pH 5.8, N = 12) amounted to 32 µg/mL (≈ 88.6 µM); in data set [8] (at pH 7, N = 12) it was 16 µg/mL (≈ 44.3 µM); in [9] (at pH 5.8, N = 10), 16 µg/mL (≈ 44.3 µM); in data set [9] (at pH 7, N = 10), 128 µg/mL (≈ 354 µM); in data set [10] (at pH 5.8, N = 14), 4 µg/mL (≈ 11.1 µM); in data set [10] (at pH 7, N = 14), 2 µg/mL (≈ 5.53 µM). Further, the MIC50 was 1 µg/mL (≈ 2.77 µM) in data set [11] (at pH 5.8, N = 8); 0.25 µg/mL (≈ 0.692 µM) in data set [11] (at pH 7, N = 8); 0.031 µg/mL (≈ 0.0858 µM) in data set [12] (at pH 5.8); 0.031 µg/mL (≈ 0.0858 µM) in data set [12] (at pH 7); 64 µg/mL (≈ 177 µM) in [13] (at pH 5.8, N = 12); 32 µg/mL (≈ 88.6 µM) in data set [13] (at pH 7, N = 12).
